Source: the supplement of paper PMC10307832

Key:
Test in all cases: relative viability (nuclei count vs DMSO), 5 days (fraction); higher = more cells survive
[1] = compound: CCN1C(=O)C2=CC(=C(N=C2N(C1=O)C3CC3)N)C(=O)N + CC(=O)Nc1cccc(-n2c(=O)n(C3CC3)c(=O)c3c(Nc4ccc(I)cc4F)n(C)c(=O)c(C)c32)c1 [Trametinib] (partner 0.02 µM)
In short: (§1)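 Relative viability equals treated-well nuclei counts divided by vehicle-well nuclei counts. Counts came from 4× images of lung cancer cell lines grown in 1536-well plates for 5 days after pin-tool dosing on the day after seeding. Dosing used one drug alone or a fixed anchor-drug dose plus five library-drug doses (not always all listed) in √10 steps, and values are medians of duplicate plates.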

[2] = compound: CCN1C(=O)C2=CC(=C(N=C2N(C1=O)C3CC3)N)C(=O)N + CC(=O)c1c(C)c2cnc(Nc3ccc(N4CCNCC4)cn3)nc2n(C2CCCC2)c1=O [Palbociclib] (partner 0.5 µM)
In short: as §1

[3] = compound: CCN1C(=O)C2=CC(=C(N=C2N(C1=O)C3CC3)N)C(=O)N + CS(=O)(=O)N1CCN(Cc2cc3nc(-c4cccc5[nH]ncc45)nc(N4CCOCC4)c3s2)CC1 [Pictilisib] (partner 1 µM)
In short: as §1

[4] = compound: CCN1C(=O)C2=CC(=C(N=C2N(C1=O)C3CC3)N)C(=O)N + CS(=O)(=O)CCNCc1ccc(-c2ccc3ncnc(Nc4ccc(OCc5cccc(F)c5)c(Cl)c4)c3c2)o1 [Lapatinib] (partner 2 µM)
In short: as §1

[5] = compound: CCN1C(=O)C2=CC(=C(N=C2N(C1=O)C3CC3)N)C(=O)N + CCNC(=O)c1noc(-c2cc(C(C)C)c(O)cc2O)c1-c1ccc(CN2CCOCC2)cc1 [Luminespib] (partner 0.01 µM)
In short: as §1

Cell Line	relative viability ([1]; first compound 0.253 µM)	relative viability ([1]; first compound 0.8 µM)	relative viability ([1]; first compound 2.53 µM)	relative viability ([1]; first compound 8 µM)	relative viability ([2]; first compound 0.253 µM)	relative viability ([2]; first compound 0.8 µM)	relative viability ([2]; first compound 2.53 µM)	relative viability ([2]; first compound 8 µM)	relative viability ([3]; first compound 0.253 µM)	relative viability ([3]; first compound 0.8 µM)	relative viability ([3]; first compound 2.53 µM)	relative viability ([3]; first compound 8 µM)	relative viability ([4]; first compound 0.253 µM)	relative viability ([4]; first compound 0.8 µM)	relative viability ([4]; first compound 2.53 µM)	relative viability ([4]; first compound 8 µM)	relative viability ([5]; first compound 0.253 µM)	relative viability ([5]; first compound 0.8 µM)	relative viability ([5]; first compound 2.53 µM)	relative viability ([5]; first compound 8 µM)
HCC-366	0.416	0.433	0.348	0.343	0.334	0.403	0.378	0.417	0.168	0.162	0.0835	0.11	1.06	0.966	0.988	1.05	–	–	–	–
HCC-827	0.525	0.538	0.537	0.544	0.475	0.45	0.395	0.517	0.954	1.08	1.16	1.03	0.183	0.219	0.17	0.206	0.77	0.588	0.459	0.866
HOP-62	0.312	0.376	0.333	0.416	0.516	0.428	0.415	0.474	1.01	0.883	0.413	0.804	0.844	1.29	1.01	1.1	1.03	0.899	0.926	0.945
IA-LM	–	–	–	–	–	–	–	–	0.358	0.356	0.343	0.339	0.877	0.902	0.88	0.747	–	–	–	–
LC-2-ad	0.918	0.865	0.845	0.871	0.424	0.53	0.483	0.496	0.465	0.409	0.514	0.506	0.841	0.747	0.943	0.903	0.926	0.938	1.12	1.11
LCLC-97TM1	0.194	0.217	0.203	0.182	0.272	0.244	0.294	0.181	0.203	–	–	0.223	1.01	–	–	1.05	0.678	0.845	0.766	0.799
LCLC-103H	0.741	0.663	0.705	0.662	0.446	0.481	0.479	0.456	0.57	0.581	0.501	0.582	–	–	–	–	0.916	0.956	0.958	1.12
LK-2	0.756	0.715	0.727	0.795	0.705	0.565	0.683	0.974	0.547	0.507	0.525	0.556	0.89	0.878	0.995	1.09	0.181	0.202	0.175	0.199
LOU-NH91	0.791	0.76	0.772	0.772	0.542	0.554	0.516	0.513	0.509	0.516	0.541	0.538	0.869	0.732	0.83	0.766	0.283	0.452	0.379	0.349
LU99A	0.504	0.545	0.56	0.549	0.461	0.448	0.419	0.409	0.305	0.332	0.303	0.363	1.04	0.984	0.984	1.09	0.249	0.259	0.285	0.234
LXF-289	0.636	0.658	0.661	0.665	0.616	0.581	0.657	0.588	0.831	0.85	0.819	0.775	0.867	0.951	0.938	0.89	0.693	0.73	0.661	0.784
NCI-H23	0.385	0.416	0.365	0.391	0.502	0.604	0.461	0.49	0.453	0.447	0.473	0.487	1.21	1.08	1.06	1.11	0.195	0.203	0.228	0.214
NCI-H322M	0.522	0.457	0.469	0.586	0.478	0.455	0.482	0.502	0.452	0.504	0.486	0.488	0.585	0.536	0.562	0.592	0.724	0.934	0.886	1
NCI-H358	0.121	0.134	0.144	0.138	0.122	0.134	0.127	0.14	0.4	0.343	0.284	0.424	0.424	0.417	0.526	0.612	0.2	0.377	0.423	0.379
NCI-H441	0.508	0.441	0.516	0.532	0.22	0.231	0.224	0.244	0.561	0.48	0.462	0.576	–	–	–	–	0.287	0.34	0.419	0.35
NCI-H522	0.712	0.797	0.792	0.709	0.954	0.966	0.794	1.1	–	–	–	–	–	–	–	–	1.19	0.977	1.12	1.05
NCI-H596	0.673	0.742	0.787	0.907	–	–	–	–	0.449	0.36	0.454	0.403	1.07	1.02	1.09	1.06	1.01	0.884	0.941	1.14
SW 900	0.81	0.864	0.75	0.641	0.551	0.558	0.521	0.669	–	–	–	–	–	–	–	–	0.217	0.193	0.174	0.166
